Earlier results in PMC9916969 (International Journal of Molecular Sciences, 2023).

Columns and labels:
equine serum BChE = molecular target: T1, equine serum BChE (Equus caballus, UniProt P81908); settings: compound 20 µM; cited from earlier work
T1 construct: human erythrocyte AChE, equine serum BChE, and porcine liver CES were used; purchased Sigma-Aldrich; host or cells: equine serum (tissue-derived)

porcine liver CES = settings: compound 20 µM; cited from earlier work
[1] = cited from earlier work

T1 sequence (P81908 whole entry): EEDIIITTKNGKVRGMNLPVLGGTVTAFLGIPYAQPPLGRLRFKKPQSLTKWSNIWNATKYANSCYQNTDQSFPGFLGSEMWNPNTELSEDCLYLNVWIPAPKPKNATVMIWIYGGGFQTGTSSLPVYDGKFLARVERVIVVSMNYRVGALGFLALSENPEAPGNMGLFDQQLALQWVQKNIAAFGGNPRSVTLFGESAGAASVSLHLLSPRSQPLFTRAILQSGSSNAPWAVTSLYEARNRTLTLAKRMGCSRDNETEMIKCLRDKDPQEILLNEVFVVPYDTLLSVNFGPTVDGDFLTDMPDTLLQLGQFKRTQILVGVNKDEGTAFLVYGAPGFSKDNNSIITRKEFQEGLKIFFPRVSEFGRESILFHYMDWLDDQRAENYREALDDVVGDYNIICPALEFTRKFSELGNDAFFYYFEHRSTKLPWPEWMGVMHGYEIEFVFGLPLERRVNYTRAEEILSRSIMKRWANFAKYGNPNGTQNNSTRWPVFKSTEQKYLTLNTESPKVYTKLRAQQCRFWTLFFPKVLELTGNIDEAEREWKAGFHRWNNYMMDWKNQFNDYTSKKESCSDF

Question: What does the source list for N-hexylsalicylamide?
Answer: Inhibitory activity against BChE, inhibition at 20 µM (equine serum BChE): 10.6 ± 0.8%; Inhibitory activity against CES, inhibition at 20 µM (porcine liver CES): 4.9 ± 1.0%; IC50 ([1]; 50% reduction of ABTS radical cation, read-out: ABTS^•+ Scavenging Activity, IC50): 46.5 ± 2.3 µM; ABTS^•+ Scavenging Activity, TEAC ([1]; Trolox equivalent): 0.39 ± 0.04
